This is an account of results in PubChem BioAssay (NCI).

Values joined by “and” are separate entries in the source; they are usually repeats but may differ in a detail not shown here. Equal entries are not always repeated.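 Where inhibition never reached the appropriate level, the endpoint shown equals the highest concentration tested. Otherwise, values were interpolated linearly from a five-concentration, 48-hour dose response in 96-well plates. GI50 is the concentration that inhibits growth by half. TGI is the concentration that stops growth completely.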

Test systems include COLO 205 colon; HOP-92 NSCLC; NCI-H460 lung; HCT-15 colon; MALME-3M melanoma; BT-549 breast; HCC-2998 colon; MOLT-4 leukemia; KM20L2 colon; LXFL 529 NSCLC.
Assay in all cases: NCI-60 cell line screen, 48 h

In the case of `O=c1c(O)cccn1CCCN(CCCn1cccc(O)c1=O)CCn1cccc(O)c1=O`, the GI50 is 21.6 µM in the experiment on COLO 205 colon; 6.1 µM in the experiment on HOP-92 NSCLC; 2.36 µM with NCI-H460 lung; 10.3 µM in the experiment on HCT-15 colon; 9.72 µM with MALME-3M melanoma; 10.5 µM in the experiment with BT-549 breast. Further, the GI50 in the experiment on HCC-2998 colon is 5.18 µM; in the experiment with MOLT-4 leukemia, 1.79 µM. In addition, the TGI in the experiment with COLO 205 colon was more than 100 µM; with HOP-92 NSCLC, more than 100 µM; with NCI-H460 lung, more than 100 µM; with HCT-15 colon, more than 100 µM; with MALME-3M melanoma, 85.9 µM; in the experiment on BT-549 breast, more than 100 µM. Further, the TGI with HCC-2998 colon and with MOLT-4 leukemia was more than 100 µM in each case.

Consider `O=C1CCC(N2C(=O)c3cccc(NCCCC4CCN(CCNC(=O)c5cc6c(o5)C(=O)c5ccccc5C6=O)CC4)c3C2=O)C(=O)N1` (stereo unspecified), for which the GI50 is 0.266 µM with COLO 205 colon; 3.51 µM in the experiment with HOP-92 NSCLC; 0.249 µM in the experiment with NCI-H460 lung; 0.825 µM in the experiment on HCT-15 colon; 0.14 µM with MALME-3M melanoma; 0.636 µM in the experiment on BT-549 breast. Besides, the GI50 in the experiment with HCC-2998 colon was 0.695 µM; with MOLT-4 leukemia, 1.93 µM. In addition, the TGI in the experiment with COLO 205 colon turned out to be 0.808 µM; with HOP-92 NSCLC, 15.1 µM; in the experiment on NCI-H460 lung, 0.609 µM; with HCT-15 colon, 2.41 µM; in the experiment with MALME-3M melanoma it was 0.284 µM; in the experiment with BT-549 breast it was 2.15 µM. Further, the TGI in the experiment with HCC-2998 colon was 1.81 µM; with MOLT-4 leukemia, 13.8 µM.

As for `COc1ccc2c(c1)/C(=C\c1c[nH]c3ccc(OC)cc13)C(=O)N2`, the GI50 with COLO 205 colon is 2.89 µM; in the experiment on HOP-92 NSCLC, 1.48 µM; with NCI-H460 lung, 3.26 µM; in the experiment on HCT-15 colon, 2.97 µM; with MALME-3M melanoma, 8.52 µM; with BT-549 breast it was 2.31 µM. Also, the results for the GI50 in the experiment with HCC-2998 colon and with MOLT-4 leukemia were 3.77 µM and 2.95 µM, respectively. Further, the TGI in the experiment with COLO 205 colon is 9.84 µM; in the experiment with HOP-92 NSCLC, 6.55 µM; in the experiment with NCI-H460 lung, 13.1 µM; in the experiment with HCT-15 colon, 12.9 µM; in the experiment on MALME-3M melanoma it was 22.9 µM; with BT-549 breast, 9.1 µM. Also, the TGI in the experiment with HCC-2998 colon amounted to 14.7 µM; in the experiment with MOLT-4 leukemia it was 8.14 µM.

Consider `CC1=C(Cl)C[C@@H](/C(C)=C\Cl)O[C@@]1(O)C(Br)Br`, for which the TGI was 88.5 µM in the experiment on COLO 205 colon; 53.2 µM in the experiment on HOP-92 NSCLC; more than 100 µM in the experiment on NCI-H460 lung; 32.4 µM in the experiment on HCT-15 colon; 79.8 µM in the experiment on MALME-3M melanoma; 79.6 µM with BT-549 breast. Also, the TGI is 99.6 µM in the experiment on HCC-2998 colon and more than 100 µM in the experiment on MOLT-4 leukemia.

As to `C=CCn1c(=O)c2cnc(Nc3ccc(N4CCN(C)CC4)cc3)nc2n1-c1cccc(C(C)(C)O)n1`, the GI50 is 0.311 µM and 0.623 µM with COLO 205 colon; 0.131 µM and 0.221 µM in the experiment with HOP-92 NSCLC; 1.56 µM and 0.996 µM in the experiment on NCI-H460 lung; 0.682 µM and 0.601 µM with HCT-15 colon; 1.73 µM and 0.593 µM with MALME-3M melanoma; 0.437 µM and 0.383 µM in the experiment on BT-549 breast. Also, the GI50 in the experiment on HCC-2998 colon was 0.388 µM and 1.13 µM; in the experiment with MOLT-4 leukemia it was 0.348 µM and 0.333 µM. The TGI in the experiment with COLO 205 colon was 2.41 µM and > 6.7 µM; in the experiment on HOP-92 NSCLC it was 3.92 µM and 2.38 µM; in the experiment on NCI-H460 lung it was 14.1 µM and > 10 µM; in the experiment with HCT-15 colon, more than 67.1 µM; in the experiment with MALME-3M melanoma it was 18.4 µM and > 10 µM; in the experiment with BT-549 breast it was 6.01 µM and > 6.27 µM. For the same molecule, the TGI was 7.26 µM and > 7.72 µM in the experiment on HCC-2998 colon; 18.1 µM and 4.26 µM in the experiment on MOLT-4 leukemia.

On to `NNc1c2ccccc2nc2ccccc12`, for which the GI50 in the experiment on COLO 205 colon is 4.63 µM; with HOP-92 NSCLC it was 5.19 µM; with NCI-H460 lung, 2.48 µM; in the experiment with HCT-15 colon it was 4.2 µM; in the experiment with MALME-3M melanoma, 5.03 µM; in the experiment on BT-549 breast, 4.15 µM. Further, the GI50 with HCC-2998 colon is 7.59 µM; with MOLT-4 leukemia, 0.897 µM. Also, the TGI with COLO 205 colon amounted to 18.3 µM; in the experiment on HOP-92 NSCLC, 43.6 µM; in the experiment on NCI-H460 lung, 15.5 µM; in the experiment on HCT-15 colon, 34.2 µM; in the experiment on MALME-3M melanoma it was 36.1 µM; with BT-549 breast, 36.8 µM. Further, the TGI is 63.2 µM in the experiment on HCC-2998 colon and more than 100 µM in the experiment with MOLT-4 leukemia.

Consider `C[C@H]1c2ccccc2CN1CCCOc1cc2c(cc1OCC1CC1)C1(CCCC1)C(N)=N2`, for which the GI50 with COLO 205 colon is 0.842 µM; with HOP-92 NSCLC it was 0.633 µM; in the experiment with NCI-H460 lung it was 1.02 µM; with HCT-15 colon, 1.46 µM; in the experiment with MALME-3M melanoma it was 0.888 µM; in the experiment with BT-549 breast it was 4.8 µM. For the same molecule, the GI50 was 0.931 µM with HCC-2998 colon and 1.4 µM in the experiment with MOLT-4 leukemia. Besides, the TGI in the experiment with COLO 205 colon was 1.68 µM; in the experiment with HOP-92 NSCLC, 3.54 µM; in the experiment with NCI-H460 lung it was 2.1 µM; in the experiment with HCT-15 colon, 5.1 µM; in the experiment with MALME-3M melanoma, 1.68 µM; in the experiment on BT-549 breast, 10.8 µM. Further, the TGI in the experiment with HCC-2998 colon came to 1.78 µM; with MOLT-4 leukemia it was 4.93 µM.

In the case of `O=NN(CCCl)C(=O)NC1CCC(=O)NC1=O` (stereo unspecified), the TGI in the experiment on COLO 205 colon is 684 µM; with HOP-92 NSCLC, 377 µM; in the experiment with NCI-H460 lung it was 463 µM; in the experiment with HCT-15 colon, 846 µM; in the experiment on KM20L2 colon it was more than 1250 µM; in the experiment on MALME-3M melanoma, 481 µM. Further, the TGI was 593 µM in the experiment on BT-549 breast, more than 1160 µM with HCC-2998 colon and 329 µM with MOLT-4 leukemia.

As for `CC(=O)[CH-]C(=O)Nc1ccccc1.CC(=O)[CH-]C(=O)Nc1ccccc1.CC[O-].CC[O-].[Ti+4]`, the GI50 with COLO 205 colon, with HOP-92 NSCLC, with NCI-H460 lung, in the experiment on HCT-15 colon, in the experiment on KM20L2 colon and in the experiment with MALME-3M melanoma was more than 100 µM in each case. Moreover, the GI50 with HCC-2998 colon and in the experiment on MOLT-4 leukemia was more than 100 µM each time. Further, the TGI in the experiment with COLO 205 colon, with HOP-92 NSCLC, in the experiment on NCI-H460 lung, in the experiment with HCT-15 colon, in the experiment with KM20L2 colon and in the experiment with MALME-3M melanoma was more than 100 µM in each case. Besides, the TGI in the experiment on HCC-2998 colon and in the experiment on MOLT-4 leukemia was more than 100 µM throughout.

In the case of `Cc1cc(C)nc(NS(=O)(=O)c2ccc(NC(=O)c3cccn4c(=O)c5ccccc5nc34)cc2)n1`, the TGI in the experiment with COLO 205 colon, in the experiment on NCI-H460 lung, in the experiment on HCT-15 colon, in the experiment on KM20L2 colon, in the experiment on HCC-2998 colon and in the experiment with MOLT-4 leukemia was more than 100 µM in each case. Besides, in the experiment on LXFL 529 NSCLC, the TGI was more than 100 µM.
